# Test results: patent US20140206682A1, “COMPOUNDS AND COMPOSITIONS AS PDGFR KINASE INHIBITORS” (NOVARTIS PHARMACEUTICALS UK LIMITED, priority 2011, published 2014)
# Test system: PDGFR
# Assay: Rat A10 cell proliferation assay
# Format: cell-based
# Details: Table 1; Rat A10 cells, recombinant rat PDGF-BB, CellTiter-Glo after 68 hours
# Method in brief: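 Rat A10 cells in DMEM with 1% FBS and 10 ng/mL rat PDGF-BB, preincubated 4 h at 37 °C, then exposed to 3-fold serially diluted compound for 68 h. Viability/proliferation read as CellTiter-Glo luminescence.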
row,SMILES,IC50 [nM]
1,"COc1ccc2c(c1)[C@@H](NC(=O)c1ccc(F)c(NC(=O)c3cnc4ccc(C)cn34)c1)[C@@H](O)C2 [F111, N-(2-fluoro-5-{[(1R,2S)-2-hydroxy-6-methoxy-2,3-dihydro-1H-inden-1-yl]carbamoyl}phenyl)-6-methylimidazo[1,2-a]pyridine-3-carboxamide]",195
2,"O=C(N[C@H](CO)c1ccccc1)c1ccc(F)c(NC(=O)c2cnc3ccccn23)c1 [F112, N-(2-fluoro-5-{[(1S)-2-hydroxy-1-phenylethyl]carbamoyl}phenyl)imidazo[1,2-a]pyridine-3-carboxamide]",76
3,"O=C(N[C@@H]1c2cc(F)ccc2C[C@@H]1O)c1ccc(F)c(NC(=O)c2cnc3ccc(F)cn23)c1 [F113, 6-fluoro-N-(2-fluoro-5-{[(1R,2S)-6-fluoro-2-hydroxy-2,3-dihydro-1H-inden-1-yl]carbamoyl}phenyl)imidazo[1,2-a]pyridine-3-carboxamide]",113
4,"Cc1ccc2ncc(C(=O)Nc3cc(C(=O)N[C@H]4CCCC[C@@H]4O)ccc3F)n2c1 [F114, N-(2-fluoro-5-{[(1S,2S)-2-hydroxycyclohexyl]carbamoyl}phenyl)-6-methylimidazo[1,2-a]pyridine-3-carboxamide]",70
5,"Cc1ccn2c(C(=O)Nc3cc(C(=O)N[C@H]4CCCC[C@@H]4O)ccc3F)cnc2c1 [F115, N-(2-fluoro-5-{[(1S,2S)-2-hydroxycyclohexyl]carbamoyl}phenyl)-7-methylimidazo[1,2-a]pyridine-3-carboxamide]",44
6,"O=C(NC[C@@H]1CCCC[C@H]1O)c1ccc(F)c(NC(=O)c2cnc3ccccn23)c1 [F116, N-[2-fluoro-5-({[(1S,2R)-2-hydroxycyclohexyl]methyl}carbamoyl)phenyl]imidazo[1,2-a]pyridine-3-carboxamide]",64
7,"COC[C@H](NC(=O)c1ccc(F)c(NC(=O)c2cnc3ccccn23)c1)[C@@H](O)c1ccccc1 [F117, N-(2-fluoro-5-{[(1S,2S)-1-hydroxy-3-methoxy-1-phenylpropan-2-yl]carbamoyl}phenyl)imidazo[1,2-a]pyridine-3-carboxamide]",13
8,"COC[C@H](NC(=O)c1ccc(F)c(NC(=O)c2cnc3ccccn23)c1)[C@@H](O)c1ccccc1 [F118, N-(2-fluoro-5-{[(1S,2S)-1-hydroxy-3-methoxy-1-phenylpropan-2-yl]carbamoyl}phenyl)imidazo[1,2-a]pyridine-3-carboxamide]",41
9,"O=C(NCC(O)c1ccccc1Cl)c1ccc(F)c(NC(=O)c2cnc3ccccn23)c1 (stereo not shown) [F120, N-(5-{[2-(2-chlorophenyl)-2-hydroxyethyl]carbamoyl}-2-fluorophenyl)imidazo[1,2-a]pyridine-3-carboxamide]",36
10,"O=C(NC[C@@H](O)c1ccc(Cl)cc1)c1ccc(F)c(NC(=O)c2cnc3ccccn23)c1 [F121, N-(5-{[(2S)-2-(4-chlorophenyl)-2-hydroxyethyl]carbamoyl}-2-fluorophenyl)imidazo[1,2-a]pyridine-3-carboxamide]",13
11,"O=C(NC[C@@H](O)c1ccccc1F)c1ccc(F)c(NC(=O)c2cnc3ccccn23)c1 [F122, N-(2-fluoro-5-{[(2S)-2-(2-fluorophenyl)-2-hydroxyethyl]carbamoyl}phenyl)imidazo[1,2-a]pyridine-3-carboxamide]",60
12,"O=C(N[C@@H](CO)[C@@H](O)c1ccccc1)c1ccc(F)c(NC(=O)c2cnc3ccccn23)c1 [F123, N-(5-{[(1S,2S)-1,3-dihydroxy-1-phenylpropan-2-yl]carbamoyl}-2-fluorophenyl)imidazo[1,2-a]pyridine-3-carboxamide]",44
13,"C[C@@]1(O)CCCC[C@@H]1NC(=O)c1ccc(F)c(NC(=O)c2cnc3ccccn23)c1 [F124, N-(2-fluoro-5-{[(1S,2R)-2-hydroxy-2-methylcyclohexyl]carbamoyl}phenyl)imidazo[1,2-a]pyridine-3-carboxamide]",187
14,"O=C(N[C@H]1CCSC[C@H]1O)c1ccc(F)c(NC(=O)c2cnc3ccccn23)c1 [F125, N-(2-fluoro-5-{[(3S,4S)-3-hydroxythian-4-yl]carbamoyl}phenyl)imidazo[1,2-a]pyridine-3-carboxamide]",98
15,"COC[C@H](NC(=O)c1ccc(F)c(NC(=O)c2cnc3cc(C)ccn23)c1)[C@@H](O)c1ccccc1 [F126, N-(2-fluoro-5-{[(1S,2S)-1-hydroxy-3-methoxy-1-phenylpropan-2-yl]carbamoyl}phenyl)-7-methylimidazo[1,2-a]pyridine-3-carboxamide]",8
16,"Cc1ccn2c(C(=O)Nc3cc(C(=O)N[C@@H](CO)[C@@H](O)c4ccccc4)ccc3F)cnc2c1 [F127, N-(5-{[(1S,2S)-1,3-dihydroxy-1-phenylpropan-2-yl]carbamoyl}-2-fluorophenyl)-7-methylimidazo[1,2-a]pyridine-3-carboxamide]",86
17,"Cn1nccc1-c1ccn2c(C(=O)Nc3cc(C(=O)N[C@@H](CO)[C@@H](O)c4ccccc4)ccc3F)cnc2c1 [F128, N-(5-{[(1S,2S)-1,3-dihydroxy-1-phenylpropan-2-yl]carbamoyl}-2-fluorophenyl)-7-(1-methyl-1H-pyrazol-5-yl)imidazo[1,2-a]pyridine-3-carboxamide]",56
18,"COC[C@H](NC(=O)c1ccc(F)c(NC(=O)c2cnc3cc(-c4ccnn4C)ccn23)c1)[C@@H](O)c1ccccc1 [F129, N-(2-fluoro-5-{[(1S,2S)-1-hydroxy-3-methoxy-1-phenylpropan-2-yl]carbamoyl}phenyl)-7-(1-methyl-1H-pyrazol-5-yl)imidazo[1,2-a]pyridine-3-carboxamide]",14
19,"Cn1nccc1-c1ccn2c(C(=O)Nc3cc(C(=O)N[C@H](CO)[C@H](O)c4ccccc4)ccc3F)cnc2c1 [F130, N-(5-{[(1R,2R)-1,3-dihydroxy-1-phenylpropan-2-yl]carbamoyl}-2-fluorophenyl)-7-(1-methyl-1H-pyrazol-5-yl)imidazo[1,2-a]pyridine-3-carboxamide]",104
